From publication PMC12293521 (Current Issues in Molecular Biology, 2025) come the findings set out here.

The nature of assay [1]: Cupric ion-reducing antioxidant capacity (CUPRAC) assay. The note with it: concentration for 50% of maximal cupric-reducing activity; mean ± SD, triplicate. How it is done: The total antioxidant capacity of the tested monoterpenes was also assessed using the Cupric ion-reducing antioxidant capacity (CUPRAC) assay, which measures the ability of antioxidants to reduce the Cu^2+-neocuproine complex to the stable-colored Cu^+-neocuproine chelate, absorbing at 450 nm. The assay was carried out following the protocol provided by the CUPRAC assay kit (Bioquochem, Asturias, Spain), with slight modifications to accommodate the tested compounds according to Salem et al.. The CUPRAC working solution consisted of a mixture of copper (II) chloride (10 mM), neocuproine (7.5 mM), and ammonium acetate buffer (1 M, pH 7.0) in a 1:1:1 volume ratio. For the assay, 40 µL of each test solution (prepared in methanol at concentrations ranging from 1 to 200 µg/mL) was added to 200 µL of the CUPRAC working solution in a well of a 96-well plate. The plate was incubated at room temperature for 30 min in the dark to allow full color development. The absorbance was then measured at 450 nm using a microplate spectrophotometer (Thermo Fisher Scientific Inc., Waltham, MA, USA). […] All tests were conducted in triplicate, and results are presented as mean ± SD.

Assay [2] addresses T1, α-amylase from porcine pancreas (Sus scrofa, UniProt P00690).
T1 construct: purchased Sigma Aldrich; host or cells: porcine pancreas
T1 sequence (P00690 16-511): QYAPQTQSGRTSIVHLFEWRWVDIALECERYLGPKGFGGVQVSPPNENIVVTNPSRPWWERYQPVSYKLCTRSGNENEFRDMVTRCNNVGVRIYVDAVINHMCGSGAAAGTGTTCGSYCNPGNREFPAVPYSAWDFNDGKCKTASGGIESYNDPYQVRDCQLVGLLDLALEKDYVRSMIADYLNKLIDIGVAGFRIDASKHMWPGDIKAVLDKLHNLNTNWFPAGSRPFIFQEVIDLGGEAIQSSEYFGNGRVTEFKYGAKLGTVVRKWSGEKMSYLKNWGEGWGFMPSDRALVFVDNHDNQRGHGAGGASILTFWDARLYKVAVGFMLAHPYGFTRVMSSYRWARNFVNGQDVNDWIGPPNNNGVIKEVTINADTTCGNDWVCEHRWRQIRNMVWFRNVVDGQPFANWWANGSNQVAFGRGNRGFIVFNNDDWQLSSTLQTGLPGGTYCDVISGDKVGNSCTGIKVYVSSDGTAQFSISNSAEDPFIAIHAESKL
Put plainly: α-amylase inhibition assay (CNPG3 substrate). In kind it is biochemical. The conditions noted are these: experimental; means ± SD of three independent replicates; read-out: AAI IC50 (α-amylase inhibition) (converted). On the procedure:
(§1) Aldose Reductase Inhibitor Screening Kit (Biovision, Milpitas, CA, USA) was used for the aldose reductase inhibition assay.
A pre-incubation mixture was prepared which contained 40 mM phosphate buffer (pH 6.9) together with different concentrations (1, 5, 10, 50, 100, 200 µg/mL) of the compounds. A 0.2 U of α-amylase enzyme was added to this mixture, and the plate was then incubated for 15 min at 37 °C. Then, 2-chloro-4-nitrophenyl maltotrioside (CNPG3) substrate was added, where the final concentration was 0.9 µmole/mL. […] A control which was devoid of the compounds was also run in parallel.

Assay [3] deals with α-glucosidase enzyme from Saccharomyces cerevisiae. Put plainly: α-glucosidase inhibition assay (PNP-G substrate). The assay is classed as biochemical. The conditions noted are these: experimental; means ± SD of three independent replicates. How it is done: as §1
The activity of the compounds was assessed spectrophotometrically according to Li et al., with slight modifications. In a volume of 100 µL of 40 mM phosphate buffer (pH 6.9), different concentrations (1, 5, 10, 50, 100, 200 µg/mL) of the compounds were prepared. The tested samples were added to a reaction mixture in a 96-well microplate containing 20 µL of the phosphate buffer and 20 µL of 5 mM p-nitrophenyl α -D-glucopyranoside (PNP-G) in the buffer. […] The IC50 for test compounds as well as the standard was calculated and presented.

Assay [4] can be described thus: Ferric-reducing antioxidant power (FRAP) assay. The conditions noted are these: concentration for 50% of maximal ferric-reducing capacity; mean ± SD, triplicate. How it is done:
The antioxidant capacity of the tested compounds was evaluated using the ferric-reducing antioxidant power (FRAP) assay, based on the reduction of ferric-tripyridyltriazine (Fe^3+-TPTZ) complex to its ferrous form (Fe^2+), resulting in a blue-colored product with a maximum absorbance at 593 nm. The assay was performed according to the modified method of Benzie and Strain [13], with modifications for microplate format and adjusted concentration ranges according to Rodrigues et al.. The FRAP working solution was freshly prepared by mixing 300 mM acetate buffer (pH 3.6), 10 mM TPTZ in 40 mM HCl, and 20 mM FeCl3·6H2O in a 10:1:1 volume ratio. The mixture was warmed to 37 °C before use to ensure optimal reaction conditions. For each reaction, 180 µL of the freshly prepared FRAP reagent was added to a well of a 96-well microplate, followed by 20 µL of the test compound at different concentrations (1–200 µg/mL) prepared in methanol. The mixture was incubated at 37 °C for 30 min. The increase in absorbance was measured at 593 nm using a microplate reader. […] All measurements were performed in triplicate and presented as the mean ± standard deviation.

Assay [5] has as its target T2, porcine pancreatic lipase (Sus scrofa, UniProt P00591).
T2 construct: purchased Sigma Aldrich
T2 sequence (P00591 1-450): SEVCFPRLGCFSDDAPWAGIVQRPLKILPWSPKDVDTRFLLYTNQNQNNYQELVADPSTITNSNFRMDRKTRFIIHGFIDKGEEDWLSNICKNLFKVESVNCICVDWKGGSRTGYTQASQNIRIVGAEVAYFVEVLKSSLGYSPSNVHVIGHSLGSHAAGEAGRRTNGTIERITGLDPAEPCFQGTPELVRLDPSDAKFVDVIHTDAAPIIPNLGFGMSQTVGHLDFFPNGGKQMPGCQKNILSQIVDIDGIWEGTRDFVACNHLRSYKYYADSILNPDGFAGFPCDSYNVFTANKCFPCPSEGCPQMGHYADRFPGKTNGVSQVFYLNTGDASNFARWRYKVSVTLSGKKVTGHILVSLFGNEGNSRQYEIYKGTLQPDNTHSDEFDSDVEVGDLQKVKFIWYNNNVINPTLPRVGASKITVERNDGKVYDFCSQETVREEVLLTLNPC
Put plainly: porcine pancreatic lipase inhibition assay (PNPB substrate). In kind it is biochemical. The conditions noted are these: experimental; means ± SD of three independent replicates; read-out: LIP IC50 (lipase inhibition) (converted). On the procedure:
as §1
The porcine pancreatic lipase inhibition assay was utilized in this work, with modifications made based on a previous study. A stock solution of each compound at 1 mg/mL in 10% DMSO was used to prepare […] with concentrations 1, 5, 10, 50, 100, 200 µg/mL by means of dilution with methanol. Just before usage, the pancreatic lipase enzyme was freshly produced as a 1 mg/mL stock solution. […] In individual test tubes, 0.1 mL of porcine pancreatic lipase (1 mg/mL) was mixed with 0.2 mL of each compound concentration. To achieve a final volume of 1 mL, the Tri-HCl solution (pH 7.4) was added, and the mixtures were incubated at 25 °C for 15 min. Following the incubation, 0.1 mL of PNPB solution was introduced to each test tube. The mixtures were once again incubated for 30 min at 37 °C. […] All tests were conducted in triplicate, and the inhibition was calculated as per Equation (1).(1) %Lipase Inhibition=AB−AE/AB×100 where AB is the recorded absorbance of the blank solution, and AE is the recorded absorbance of the compound’s solution.

Assay [6] addresses T3, aldose reductase (Homo sapiens, UniProt P15121).
T3 construct: purchased Biovision, Milpitas, CA, USA
Put plainly: aldose reductase inhibition assay (Aldose Reductase Inhibitor Screening Kit). The assay is classed as biochemical. The note with it: experimental; means ± SD of three independent replicates; read-out: ALR IC50 (aldose reductase inhibition) (converted). How it is done:
Aldose Reductase Inhibitor Screening Kit (Biovision, Milpitas, CA, USA) was used for the aldose reductase inhibition assay. Determination of the aldose reductase inhibitory effectiveness of the investigated compounds was performed kinetically using the Aldose Reductase Inhibitor Screening Kit (Biovision, Milpitas, CA, USA), according to the manufacturer's protocol. The decrease in the absorption of NADPH at 340 nm was measured in a mixture containing NADPH, the enzyme, and its substrate, […], in addition to test samples [21]. […] After incubation, 40 μL of enzyme substrate in assay buffer was added, and the absorbance was measured at 340 nm kinetically for 60-90 min at 37 °C. A background control free from the enzyme was run and subtracted from the readings. The IC50 was calculated and presented for the samples and the standard.

Assay [7] can be described thus: ABTS radical-scavenging assay. The conditions noted are these: mean ± SD. On the procedure: The ABTS assay was determined according to Elbouzidi et al., with some modifications. The stock solutions included 7.4 mM ABTS and 2.6 mM potassium persulfate. ABTS radical cation was prepared by mixing the two stock solutions in equal quantities and allowed to stand for 16 h at room temperature in the dark. And then, ABTS radical solution was adjusted with phosphate-buffered saline (pH 7.4) to an absorbance of 0.7–0.8 at 734 nm. For this assay, 190 μL of ABTS radical solution was mixed with 10 μL of each test sample solution in 96-well plates. After 60 min, the decrease of absorbance was measured at 734 nm using a microplate reader (Thermo Fisher Scientific Inc., Waltham, MA, USA). The standard curve was linear between 0.025 and 0.9 mM Trolox. […] Additional dilution was needed if the ABTS value measured was over the linear range of the standard curve.

What is called IC50 is the concentration that gives 50% inhibition. Turning to `C=CCc1ccc(O)c(OC)c1` [Eugenol], the “CUPRAC IC50” value in assay [1] was 39.53 ± 2.83 µg/mL. The 50% inhibitory concentration (IC50) in assay [2] is 339 µM; in assay [5], 388 µM; in assay [6] it was 241 µM. Further, the “AGI IC50 (α-glucosidase inhibition)” value in assay [3] is listed as 84.93 ± 6.14 µg/mL. The “FRAP EC50” value in assay [4] was determined as 78.55 ± 8.74 µg/mL. Further, the “ABTS IC50” value in assay [7] worked out at 19.42 ± 0.58 µg/mL.

With `O=C1O[C@H]([C@@H](O)CO)C(O)=C1O` [AA, ascorbic acid, reference compound], in assay [4], the “FRAP EC50” value is on record as 56.92 ± 2.99 µg/mL. Further, the “ABTS IC50” value in assay [7] is on record as 136.78 ± 5.97 µg/mL.

For `Cc1cc(C(C)(C)C)c(O)c(C(C)(C)C)c1` [BHT, butylated hydroxytoluene, reference compound], the “FRAP EC50” value in assay [4] amounted to 63.88 ± 4.83 µg/mL. The “ABTS IC50” value in assay [7] turned out to be 153.55 ± 9.65 µg/mL.

`CC1=CCC(C(C)(C)O)CC1` (stereo not drawn) [Terpineol, α-terpineol]: the half-maximal inhibitory concentration (IC50) in assay [2] is 1740 µM; in assay [5] it was 392 µM; in assay [6] it was 899 µM. Further, the “AGI IC50 (α-glucosidase inhibition)” value in assay [3] turned out to be 340.42 ± 23.19 µg/mL. Also, the “FRAP EC50” value in assay [4] amounted to 389.01 ± 9.53 µg/mL. For the same compound, the “ABTS IC50” value in assay [7] was determined as 476.49 ± 19.93 µg/mL.

As for `CC12CCC(CC1=O)C2(C)C` (centres unmarked) [Camphor], the values for the half-maximal inhibitory concentration (IC50) in assay [2], in assay [5] and in assay [6] were 2340 µM, 3540 µM and 1710 µM, respectively. For the same compound, the “AGI IC50 (α-glucosidase inhibition)” value in assay [3] is reported as 484.95 ± 17.65 µg/mL. Also, the “FRAP EC50” value in assay [4] is given as 1459.83 ± 39.96 µg/mL. For the same compound, the “ABTS IC50” value in assay [7] turned out to be 755.82 ± 67.30 µg/mL.
